Consider 30 compounds from patent publication US7884136B2, “Modified-release formulations of a bupropion salt” (Biovail Laboratories International S.R.L., priority 2005, dated 2011).

The nature of data set [1]: Accelerated stability study of bupropion HBr, closed bottles, 40° C./75% RH, 3 and 6 months, HPLC. Format: physicochemical. To be noted: 40° C./R.H. 75%; for Chromatographic purity B) (HPLC): 4) 2-N-(tert-Butyl)-aminopropiophenone / Chromatographic purity B) (HPLC): 5) single unknown impurity (each): LOQ 0.02%, LOD 0.002%; for Chromatographic purity A) (HPLC): 1) 3′-Chloropropiophenone / Chromatographic purity A) (HPLC): 3) 3′-Chlorobenzoic acid / Chromatographic purity A) (HPLC): 2) 3′-Chloro-2-bromopropiophenone: LOQ 0.05%; for Chromatographic purity A) (HPLC): 1) 3′-Chloropropiophenone / Chromatographic purity A) (HPLC): 3) 3′-Chlorobenzoic acid: LOD 0.01%; for Chromatographic purity A) (HPLC): 2) 3′-Chloro-2-bromopropiophenone: LOD 0.04%; for Assay (HPLC): on d.b.; for Description: specification white or almost white crystalline powder; for Chromatographic purity B) (HPLC): 6) total unknown impurities: sum of all impurity peak areas. The protocol:
The samples were prepared in closed bottles and placed in the stability chamber. HPLC analysis was conducted on the samples prior to placing them in the stability chamber (time 0), and after 3 months and 6 months. The amounts of the main degradation products present at time 0 were compared with those amounts present after 3 months and 6 months. […] For each sample tested, at each time period, two different HPLC assays were run. The first assay labelled chromatographic purity A, measured the percentage of three impurities 3′chloropropiophenone, 3′-Chloro-2-bromopropiophenone and 3′-Chlorobenzoic acid. The second assay, labelled chromatographic purity B, measured the percentage of 2-N-(tert-Butyl)-aminopropiophenone, a single unknown impurity and the total unknown impurities.

For data set [2] the following is noted: cited from earlier work.
[3] abbreviates: Lower Alcohol Fatty Acid Ester Surfactants, as reported by the manufacturer.
Where [4] appears, read: Mono- and Diglyceride Surfactants.
The mark [5] stands for this setting: Transesterification Products of Oils and Alcohols.
The mark [6] stands for this setting: Propylene Glycol Fatty Acid Esters.
[7] abbreviates: Ionic Surfactants, as reported by the manufacturer.

Read-outs that look alike come from different tables or passages of the source.

As for `Br.CC(NC(C)(C)C)C(=O)c1cccc(Cl)c1` (centres unmarked) [Bupropion.HBr D00895], in data set [1] (3 month), the “Chromatographic purity (HPLC: A + B) Total impurities” value is on record as 0.1%, the “Water content (K.F.)” value turned out to be 0.07%, the “Chromatographic purity B) (HPLC): 4) 2-N-(tert-Butyl)-aminopropiophenone” value was 4) 0.03% and the “Chromatographic purity B) (HPLC): 5) single unknown impurity (each)” value is 5) 0.04%. For the same compound, in data set [1] (3 month), the “Chromatographic purity A) (HPLC): 1) 3′-Chloropropiophenone” value is 1) n.q, the “Chromatographic purity A) (HPLC): 3) 3′-Chlorobenzoic acid” value is recorded as 3) 0.05%, the “Chromatographic purity A) (HPLC): 2) 3′-Chloro-2-bromopropiophenone” value was 2) n.d and the “Assay (HPLC)” value turned out to be 100.7%. For the same compound, in data set [1] (3 month), the Description entry is “conform” and the “Chromatographic purity B) (HPLC): 6) total unknown impurities” value is given as 6) 0.05%. For the same compound, in data set [1] (6 months), the “Chromatographic purity (HPLC: A + B) Total impurities” value was found to be 0.1%, the “Water content (K.F.)” value turned out to be 0.07%, the “Chromatographic purity B) (HPLC): 4) 2-N-(tert-Butyl)-aminopropiophenone” value is reported as 4) 0.04% and the “Chromatographic purity B) (HPLC): 5) single unknown impurity (each)” value is 5) n.q. Moreover, in data set [1] (6 months), the “Chromatographic purity A) (HPLC): 1) 3′-Chloropropiophenone” value was 1) 0.05%, the “Chromatographic purity A) (HPLC): 3) 3′-Chlorobenzoic acid” value is reported as 3) n.q, the “Chromatographic purity A) (HPLC): 2) 3′-Chloro-2-bromopropiophenone” value is reported as 2) n.d and the “Assay (HPLC)” value is reported as 99.7%. In data set [1] (6 months), the Description result is “conform” and the “Chromatographic purity B) (HPLC): 6) total unknown impurities” value is given as 6) 0.02%. Moreover, in data set [1] (time 0), the “Chromatographic purity (HPLC: A + B) Total impurities” value came to 0.1%, the “Water content (K.F.)” value stood at 0.04%, the “Chromatographic purity B) (HPLC): 4) 2-N-(tert-Butyl)-aminopropiophenone” value is listed as 4) 0.04% and the “Chromatographic purity B) (HPLC): 5) single unknown impurity (each)” value was 5) 0.04%. For the same compound, in data set [1] (time 0), the “Chromatographic purity A) (HPLC): 1) 3′-Chloropropiophenone” value is 1) n.d, the “Chromatographic purity A) (HPLC): 3) 3′-Chlorobenzoic acid” value was 3) n.q, the “Chromatographic purity A) (HPLC): 2) 3′-Chloro-2-bromopropiophenone” value is given as 2) n.d and the “Assay (HPLC)” value came to 99.2%. For the same compound, the Description result in data set [1] (time 0) is reported as “conform”.
Take `Br.CC(NC(C)(C)C)C(=O)c1cccc(Cl)c1` (centres unmarked) [Bupropion.HBr D00896]: in data set [1] (3 month), the “Chromatographic purity (HPLC: A + B) Total impurities” value is listed as 0.1%, the “Water content (K.F.)” value is 0.11%, the “Chromatographic purity B) (HPLC): 4) 2-N-(tert-Butyl)-aminopropiophenone” value is 4) 0.03% and the “Chromatographic purity B) (HPLC): 5) single unknown impurity (each)” value is reported as 5) 0.04%. Also, in data set [1] (3 month), the “Chromatographic purity A) (HPLC): 1) 3′-Chloropropiophenone” value is 1) n.q, the “Chromatographic purity A) (HPLC): 3) 3′-Chlorobenzoic acid” value was 3) n.q, the “Chromatographic purity A) (HPLC): 2) 3′-Chloro-2-bromopropiophenone” value was 2) n.d and the “Assay (HPLC)” value stood at 100.0%. For the same compound, the Description result in data set [1] (3 month) is “conform”. In addition, in data set [1] (6 months), the “Chromatographic purity (HPLC: A + B) Total impurities” value came to 0.1%, the “Water content (K.F.)” value was found to be 0.04%, the “Chromatographic purity B) (HPLC): 4) 2-N-(tert-Butyl)-aminopropiophenone” value is 4) 0.04% and the “Chromatographic purity B) (HPLC): 5) single unknown impurity (each)” value is 5) n.q. In addition, in data set [1] (6 months), the “Chromatographic purity A) (HPLC): 1) 3′-Chloropropiophenone” value was 1) 0.05%, the “Chromatographic purity A) (HPLC): 3) 3′-Chlorobenzoic acid” value is given as 3) n.q, the “Chromatographic purity A) (HPLC): 2) 3′-Chloro-2-bromopropiophenone” value is 2) n.d and the “Assay (HPLC)” value came out at 100.4%. Besides, in data set [1] (6 months), the Description result is “conform” and the “Chromatographic purity B) (HPLC): 6) total unknown impurities” value was 6) n.q. In data set [1] (time 0), the “Chromatographic purity (HPLC: A + B) Total impurities” value is 0.1%, the “Water content (K.F.)” value is listed as 0.06%, the “Chromatographic purity B) (HPLC): 4) 2-N-(tert-Butyl)-aminopropiophenone” value was 4) 0.04% and the “Chromatographic purity B) (HPLC): 5) single unknown impurity (each)” value is on record as 5) 0.05%. Moreover, in data set [1] (time 0), the “Chromatographic purity A) (HPLC): 1) 3′-Chloropropiophenone” value is 1) n.d, the “Chromatographic purity A) (HPLC): 3) 3′-Chlorobenzoic acid” value was 3) n.q, the “Chromatographic purity A) (HPLC): 2) 3′-Chloro-2-bromopropiophenone” value is reported as 2) n.d and the “Assay (HPLC)” value was 99.3%. In addition, in data set [1] (time 0), the Description entry is given as “conform” and the “Chromatographic purity B) (HPLC): 6) total unknown impurities” value was 6) 0.05%.
On to `CCCCC/C=C\C/C=C\CCCCCCCC(=O)OCC` [Ethyl linoleate], for which, in data set [2] (setting [3]), the HLB was less than 10.
Consider `CCCCCCCC/C=C\CCCCCCCC(=O)OCC` [Ethyl oleate], for which the HLB in data set [2] (setting [3]) was less than 10.
Regarding `CCCCC/C=C\C/C=C\CCCCCCCC(=O)OCC(O)CO` (centres unmarked) [Glycerol monolinoleate], the HLB in data set [2] (setting [4]) is on record as 3-4.
Regarding `CCCCCCCCCCCCCCCC(=O)OCC(O)CO` (centres unmarked) [Glycerol monopalmitate], the HLB in data set [2] (setting [4]) was 4.
Regarding `CCCCCCCCCCCCCCCCCC(=O)OCC(O)CO` (centres unmarked) [Glycerol monostearate], the HLB in data set [2] (setting [4]) is given as 5-9.
Consider `CC(=O)OCC(O)CO` (centres unmarked) [Glyceryl acetate], for which the HLB in data set [2] (setting [4]) is on record as less than 10.
On to `CCCCCCCC(=O)OCC(O)CO` (centres unmarked) [Glyceryl caprylate], for which, in data set [2] (setting [4]), the HLB is on record as 5-6.
With `CCCCCCCCCCCC(=O)OCC(O)CO` (centres unmarked) [Glyceryl laurate], in data set [2] (setting [4]), the HLB is recorded as 4.
As to `CCCCCCCCCCCC(=O)OCC(O)CO` (centres unmarked) [Glyceryl monolaurate], the HLB in data set [2] (setting [4]) is recorded as 6.8.
As for `CCCCCCCCCCCCCC(=O)OCC(O)CO` (centres unmarked) [Glyceryl monomyristate (C14)], in data set [2] (setting [4]), the HLB is 3-4.
As for `CCCCCCCC/C=C\CCCCCCCC(=O)OCC(O)CO` (centres unmarked) [Glyceryl monooleate], the HLB in data set [2] (setting [4]) is on record as 3-4.
Regarding `CCCCCC[C@@H](O)C/C=C\CCCCCCCC(=O)OCC(O)CO` (some centres unmarked) [Glyceryl ricinoleate], in data set [2] (setting [4]), the HLB was 6.
Regarding `CCCCC/C=C\C/C=C\CCCCCCCC(=O)OC(C)C` [Isopropyl linoleate], the HLB in data set [2] (setting [3]) is reported as less than 10.
Turning to `CCCCCCCCCCCCCC(=O)OC(C)C` [Isopropyl myristate], the HLB in data set [2] (setting [3]) is less than 10.
Regarding `CCCCCCCCCC(=O)OCC(O)CO` (centres unmarked) [Monocaprin], the HLB in data set [2] (setting [4]) is reported as less than 10.
In the case of `CCCCCC(=O)OCC(O)CO` (centres unmarked) [Monocaproin (C6)], in data set [2] (setting [4]), the HLB is reported as less than 10.
Consider `CCCCCCCC(=O)OCC(O)CO` (centres unmarked) [Monocaprylin], for which the HLB in data set [2] (setting [4]) is less than 10.
With `CCCCCCCC/C=C/CCCCCCCC(=O)OCC(O)CO` (centres unmarked) [Monoelaidin (C18:1)], the HLB in data set [2] (setting [4]) is less than 10.
For the compound `CCCCCCCCCCCC(=O)OCC(O)CO` (centres unmarked) [Monolaurin], in data set [2] (setting [4]), the HLB is listed as less than 10.
For the compound `CCCCCCCCCCCCCCCCCC(=O)OCC(CO)(CO)COC(=O)CCCCCCCCCCCCCCCCC` [Pentaerythrityl distearate], the HLB in data set [2] (setting [5]) is on record as less than 10.
In the case of `CCCCCCCC/C=C\CCCCCCCC(=O)OCC(COC(=O)CCCCCCC/C=C\CCCCCCCC)(COC(=O)CCCCCCC/C=C\CCCCCCCC)COC(=O)CCCCCCC/C=C\CCCCCCCC` [Pentaerythrityl tetraoleate], in data set [2] (setting [5]), the HLB is on record as less than 10.
`CCCCCCCCCCCCCCCCCC(=O)OCC(COC(=O)CCCCCCCCCCCCCCCCC)(COC(=O)CCCCCCCCCCCCCCCCC)COC(=O)CCCCCCCCCCCCCCCCC` [Pentaerythrityl tetrastearate]: the HLB in data set [2] (setting [5]) is recorded as less than 10.
In the case of `CCCCCCCCCC(=O)OCC(C)OC(=O)CCCCCCCCC` (centres unmarked) [Propylene glycol dicaprate], the HLB in data set [2] (setting [6]) is reported as greater than 6.
For `CCCCCCCC(=O)OCC(C)OC(=O)CCCCCCC` (centres unmarked) [Propylene glycol dicaprylate], the HLB in data set [2] (setting [6]) is on record as greater than 6.
`CCCCCCCCCCCC(=O)OCC(C)OC(=O)CCCCCCCCCCC` (centres unmarked) [Propylene glycol dilaurate]: the HLB in data set [2] (setting [6]) was greater than 6.
As for `CCCCCCCCCCCCCCCCCC(=O)OCC(C)OC(=O)CCCCCCCCCCCCCCCCC` (centres unmarked) [Propylene glycol distearate], the HLB in data set [2] (setting [6]) is on record as greater than 6.
Turning to `CCCCCCCCCCCCOS(=O)(=O)[O-].[Na+]` [Sodium lauryl sulfate (dodecyl)], the HLB in data set [2] (setting [7]) is 40.
For the compound `CCCCCCCC/C=C\CCCCCCCC(=O)[O-].[Na+]` [Sodium oleate], the HLB in data set [2] (setting [7]) is given as 18.
